Assay [1] has as its target T1, 17-beta-hydroxysteroid dehydrogenase type 1 (Homo sapiens) (UniProt P14061).
T1 sequence (whole entry): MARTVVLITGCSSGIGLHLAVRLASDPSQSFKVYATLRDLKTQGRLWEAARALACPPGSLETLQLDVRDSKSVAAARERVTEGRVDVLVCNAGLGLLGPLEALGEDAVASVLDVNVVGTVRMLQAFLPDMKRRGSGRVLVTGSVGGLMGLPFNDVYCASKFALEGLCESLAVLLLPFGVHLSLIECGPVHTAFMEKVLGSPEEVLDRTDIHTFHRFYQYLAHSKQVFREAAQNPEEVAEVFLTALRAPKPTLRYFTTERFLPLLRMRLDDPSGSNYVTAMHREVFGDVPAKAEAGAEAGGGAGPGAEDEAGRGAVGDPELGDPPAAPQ
As to the kind of experiment: Inhibition of human recombinant 17beta-HSD1 at 1 uM by cell-free assay. The format is single protein.

For assay [2], the target named is T1, 17-beta-hydroxysteroid dehydrogenase type 1 (Homo sapiens). As to the kind of experiment: Inhibition of human recombinant 17beta-HSD1 expressed in human MCF7 cells at 0.1 uM by cell-based assay.
The target is the same in assay [3]. As to the kind of experiment: Inhibition of human recombinant 17beta-HSD1 expressed in human MCF7 cells at 1 uM by cell-based assay.
The target of assay [4] is T2, 17-beta-hydroxysteroid dehydrogenase type 2 (Homo sapiens) (UniProt P37059).
T2 sequence (whole entry): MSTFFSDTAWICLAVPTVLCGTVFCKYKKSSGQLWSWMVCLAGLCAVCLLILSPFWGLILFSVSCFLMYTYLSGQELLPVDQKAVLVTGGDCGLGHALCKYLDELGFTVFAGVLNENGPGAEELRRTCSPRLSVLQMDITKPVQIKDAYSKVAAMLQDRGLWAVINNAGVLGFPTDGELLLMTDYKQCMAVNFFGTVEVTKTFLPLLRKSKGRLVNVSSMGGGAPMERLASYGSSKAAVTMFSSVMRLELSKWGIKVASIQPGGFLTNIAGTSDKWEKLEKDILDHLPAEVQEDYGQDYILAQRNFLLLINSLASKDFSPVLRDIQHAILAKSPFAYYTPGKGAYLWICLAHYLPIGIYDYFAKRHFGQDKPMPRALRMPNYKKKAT
As to the kind of experiment: Inhibition of human recombinant 17beta-HSD2 at 0.1 uM by cell-free assay.

For assay [5], the target named is T2, 17-beta-hydroxysteroid dehydrogenase type 2 (Homo sapiens). The assay can be described thus: Inhibition of human recombinant 17beta-HSD2 at 1 uM by cell-free assay.
Assay [6] deals with T1, 17-beta-hydroxysteroid dehydrogenase type 1 (Homo sapiens). As to the kind of experiment: Inhibition of human recombinant 17beta-HSD1 at 0.1 uM by cell-free assay. The class given is single protein.

Activity calls are given as the source filed them. The rule behind the calls is not given here.

A word on the inhibition: it is the relative decrease from the control value, in per cent. Take `CC(C)SC1=C(C=O)CCc2c1sc1nc3n(c(=O)c21)CCCCC3`: the inhibition in assay [1] was 92.9%; in assay [2], 71.9%; in assay [3], 100%; in assay [6] it was 64.7%. For the same compound, the inhibition entry in assay [4] and in assay [5] was “inactive” each time.
As for `Cc1ccc(SC2=C(C=O)CCc3c2sc2nc4n(c(=O)c32)CCCCC4)cc1`, the inhibition came to 80.6% in assay [1]; 18.9% in assay [2]; 69.4% in assay [3]; 8.2% in assay [4]; 32.1% in assay [5]; 47% in assay [6].
For the compound `CCCSc1c(C=O)ccc2c1sc1nc3n(c(=O)c12)CCCCC3`, the inhibition in assay [1] was found to be 90.6%; in assay [2], 28.5%; in assay [3], 86.4%; in assay [4] it was 3.8%; in assay [5] it was 12.7%; in assay [6], 83%.
With `CCCCSC1=C(C=O)CCc2c1sc1nc3n(c(=O)c21)CCCCC3`, the inhibition in assay [1] worked out at 93.4%; in assay [2] it was 54.1%; in assay [3], 100%; in assay [5], 7.8%; in assay [6], 67.6%. In assay [4], the inhibition result was “inactive”.
For the compound `O=CC1=C(Sc2ccc(O)cc2)c2sc3nc4n(c(=O)c3c2CC1)CCCCC4`, the inhibition is 1.8% in assay [1]; 36.5% in assay [2]; 76.8% in assay [3]; 21.7% in assay [4]; 22.6% in assay [5]; 58.5% in assay [6].
On to `CCCSC1=C(C=O)CCCc2c1sc1nc3n(c(=O)c21)CCCCC3`, for which the inhibition came out at 87% in assay [1], 43.9% in assay [2], 100% in assay [3] and 35.2% in assay [6]. The inhibition result in assay [4] and in assay [5] was “inactive” each time.
Turning to `O=CC1=C(Sc2ccc(C(=O)O)cc2)c2sc3nc4n(c(=O)c3c2CC1)CCCCC4`, the inhibition in assay [1] was determined as 22.1%; in assay [6], 3.8%.
On to `O=CC1=C(Sc2ccncc2)c2sc3nc4n(c(=O)c3c2CC1)CCCCC4`, for which the inhibition in assay [1] was determined as 87.2%; in assay [4], 10.5%; in assay [5] it was 13.7%; in assay [6], 79.2%.
For the compound `O=CC1=C(Cl)c2sc3nc4n(c(=O)c3c2CC1)CCC4`, the inhibition in assay [1] worked out at 26.1%; in assay [2], 19.7%; in assay [3] it was 38.6%; in assay [6], 3.3%.
`CCCSC1=C(C=O)CCc2c1sc1nc3n(c(=O)c21)CCC3`: the values for the inhibition in assay [1] and in assay [6] were 67.2% and 16.7%, respectively.
`CCCSc1c(CO)ccc2c1sc1nc3n(c(=O)c12)CCCCC3`: the inhibition in assay [1] stood at 85.9%; in assay [2] it was 35.6%; in assay [3], 78.6%; in assay [4], 13.6%; in assay [5] it was 20.6%; in assay [6] it was 69%.
As for `O=CC1=C(SCC(=O)N2CCOCC2)c2sc3nc4n(c(=O)c3c2CC1)CCCCC4`, the inhibition is 7.8% in assay [1]; 3.9% in assay [2]; 39.4% in assay [3]; 3.9% in assay [4]; 3.1% in assay [5]; 4% in assay [6].
For `O=c1c2c3c(sc2nc2n1CCCCC2)CCCC3`, the inhibition was 23.2% in assay [1], 10% in assay [2], 45.9% in assay [3] and 8% in assay [6].
`O=CC1=C(SCc2ccccc2)c2sc3nc4n(c(=O)c3c2CC1)CCCCC4`: the inhibition in assay [1] was 30.7%; in assay [4] it was 25.8%; in assay [5], 62.2%; in assay [6], 7.2%.
On to `O=c1c2c3c(sc2nc2n1CCCCC2)C(Cl)=C(CO)CC3`, for which the inhibition amounted to 39.9% in assay [1], 25.9% in assay [2], 36.2% in assay [3] and 14.5% in assay [6].
Regarding `O=CC1=C(Sc2ccccc2O)c2sc3nc4n(c(=O)c3c2CC1)CCCCC4`, the inhibition in assay [1] turned out to be 91.3%; in assay [2], 18.2%; in assay [3], 90.1%; in assay [4] it was 32.6%; in assay [5] it was 71.6%; in assay [6] it was 85.6%.
Take `O=CC1=C(Sc2ccc3ccccc3c2)c2sc3nc4n(c(=O)c3c2CC1)CCCCC4`: the inhibition in assay [1] was 64%; in assay [4], 19%; in assay [5], 40.1%; in assay [6], 55.2%.
Turning to `CCCSC1=C(/C=C/C(C)=O)CCc2c1sc1nc3n(c(=O)c21)CCCCC3`, the inhibition was 13.9% in assay [1], 8.4% in assay [2], 8.9% in assay [3] and 1.1% in assay [6].
On to `O=CC1=C(Sc2ccc(F)cc2)c2sc3nc4n(c(=O)c3c2CC1)CCCCC4`, for which the inhibition in assay [1] was 91.9%; in assay [2] it was 17.3%; in assay [3], 27.4%; in assay [4], 17%; in assay [5] it was 27.4%; in assay [6], 87.4%.
In the case of `O=c1c2c3c(sc2nc2n1CCCCC2)C(Cl)=C(/C=N/O)CC3`, the inhibition in assay [1] was found to be 17.9%; in assay [2] it was 14%; in assay [3], 15.1%; in assay [6] it was 4.1%.
`CCSC1=C(C=O)CCc2c1sc1nc3n(c(=O)c21)CCCCC3`: the inhibition came to 94.5% in assay [1]; 66.1% in assay [2]; 100% in assay [3]; 2% in assay [5]; 71.3% in assay [6]. Further, in assay [4], the inhibition result is “inactive”.
In the case of `CCCSC1=C(C=O)CCc2c1sc1ncn(C)c(=O)c21`, the inhibition turned out to be 55.8% in assay [1]; 19.5% in assay [2]; 48.2% in assay [3]; 12.9% in assay [4]; 17.4% in assay [5]; 24.3% in assay [6].
Consider `CCCSC1=C(/C=N/O)CCc2c1sc1nc3n(c(=O)c21)CCCCC3`, for which the inhibition in assay [1] turned out to be 2.9%; in assay [4] it was 19.7%; in assay [5], 41.1%; in assay [6] it was 0.1%.
As to `O=c1c2c(nc3n1CCCCC3)sc1c(Sc3ccccc3)c(CO)ccc12`, the inhibition in assay [1] was found to be 87.5%; in assay [2], 30.5%; in assay [3], 46.9%; in assay [4], 30.8%; in assay [5], 37.3%; in assay [6], 80.5%.
In the case of `O=CC1=C(SCCC(=O)O)c2sc3nc4n(c(=O)c3c2CC1)CCCCC4`, the inhibition in assay [1] stood at 2.8%; in assay [6], 0.3%.
On to `O=C1CCCc2c1sc1nc3n(c(=O)c21)CCCC3`, for which the inhibition in assay [1] is 3.8%; in assay [2], 6.3%; in assay [3], 35.8%. Moreover, in assay [6], the inhibition result is “inactive”.
Turning to `COc1ccc(SC2=C(C=O)CCc3c2sc2nc4n(c(=O)c32)CCCCC4)cc1`, the inhibition in assay [1] was 89.8%; in assay [2], 24.6%; in assay [3] it was 71.6%; in assay [4] it was 8.6%; in assay [5], 53%; in assay [6] it was 89%.

For the origin of these results see ChEMBL document CHEMBL1154617, “Synthesis and biological evaluation of 17beta-hydroxysteroid dehydrogenase type 1 (17beta-HSD1) inhibitors based on a thieno[2,3-d]pyrimidin-4(3H)-one core” (J Med Chem, 2009).
